Measurements reported in the supplement of paper PMC6965134.
± gives the standard deviation of the averaged measurements. Each block holds one compound with its values, some of them ahead of it.

Columns and labels:
[1] = TIMS collisional cross section (CCS, N2) of the lipid ion; higher = larger ion cross section; settings: ionization mode: negative, one isomer drawn
Protocol: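 Lipid extracts of human plasma (NIST SRM 1950), mouse liver or HeLa cells were separated by nanoflow C18 LC (30 min gradient) and analysed by TIMS-PASEF on a timsTOF Pro. Ion mobility was calibrated with the Agilent tuning mix (negative mode ions) and converted to collisional cross sections (Mason–Schamp, N2).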

[2] = as above; settings: ionization mode: positive, one isomer drawn
[3] = sample type: Human plasma, ion (formula + adduct): [C34H62O5-H] 1-
[4] = sample type: Human plasma, ion (formula + adduct): [C36H66O5-H] 1-

Compound: CCCCC/C=C\C/C=C\CCCCCCCC(=O)OC[C@H](COP(=O)(O)OCC(O)COP(=O)(O)OC[C@@H](COC(=O)CCCCCCC/C=C\C/C=C\CCCCC)OC(=O)CCCCCCC/C=C\C/C=C\CCCCC)OC(=O)CCCCCCC/C=C\C/C=C\CCCCC (stereo not given in full) [CL 18:2_18:2_18:2_18:2]
TIMS collisional cross section ([1]; sample type: Mouse Liver, ion (formula + adduct): [C81H142O17P2-H] 2-): 411.8 Å²

Compound: CCCCCCCCCCCCC/C=C/[C@@H](O)[C@H](CO)NC(=O)CCCCCCCCCCCCCCCCCCCCC [Cer d18:1_22:0]
TIMS collisional cross section ([1]; sample type: Mouse Liver, ion (formula + adduct): [C40H79NO3-H] 1-): 265 Å²

Compound: CCCCC/C=C\C/C=C\CCCCCCCC(=O)O[C@@H](CO)COC(=O)CCCCCCCCCCC [DG 12:0@_18:2_0:0]
TIMS collisional cross section ([1]; sample type: Human plasma, ion (formula + adduct): [C33H60O5-H] 1-): 229.1 Å²

Compound: CCCCC/C=C\C/C=C\CCCCCCCC(=O)O[C@@H](CO)COC(=O)CCCCCCCCCCCC [DG 13:0@_18:2_0:0]
TIMS collisional cross section [1, 3]: 244.7 Å²

Compound: CCCCCCCC/C=C\CCCCCCCC(=O)O[C@@H](CO)COC(=O)CCCCCCCCCCCC [DG 13:0_18:1@_0:0]
TIMS collisional cross section ([1]; sample type: Mouse Liver, ion (formula + adduct): [C34H64O5+AcO] 1-): 252.3 Å²

Compound: CCCCC/C=C\C/C=C\C/C=C\C/C=C\CCCC(=O)O[C@@H](CO)COC(=O)CCCCCCCCCCCCC [DG 14:0@_20:4_0:0]
TIMS collisional cross section ([1]; sample type: Human plasma, ion (formula + adduct): [C37H64O5+HCOO] 1-): 256.2 Å²

Compound: CCCC/C=C\CCCCCCCC(=O)OC[C@H](CO)OC(=O)CCCCCCCCC/C=C\C/C=C\CCCCC [DG 14:1@_20:2_0:0]
TIMS collisional cross section ([1]; sample type: Human plasma, ion (formula + adduct): [C37H66O5-H] 1-): 247.2 Å²

Compound: CCCCC/C=C\C/C=C\CCCCCCCC(=O)O[C@@H](CO)COC(=O)CCCCCCCCCCCCCC [DG 15:0@_18:2_0:0]
TIMS collisional cross section [1, 4]: 254.4 Å²

Compound: CCCCC/C=C\CCCCCCCC(=O)OC[C@H](CO)OC(=O)CCCCCCC/C=C\CCCCCC [DG 15:1@_16:1_0:0]
TIMS collisional cross section [1, 3]: 245.3 Å²

Compound: CCCCC/C=C\CCCCCCCC(=O)OC[C@H](CO)OC(=O)CCCCCCC/C=C\CCCCCCCC [DG 15:1@_18:1_0:0]
TIMS collisional cross section [1, 4]: 253.8 Å²

Compound: CC/C=C\C/C=C\C/C=C\CCCCCCCC(=O)O[C@@H](CO)COC(=O)CCCCCCC/C=C\CCCCC [DG 15:1@_18:3_0:0]
TIMS collisional cross section ([1]; sample type: Human plasma, ion (formula + adduct): [C36H62O5-H] 1-): 251.2 Å²

Compound: CCCCCCCCCCCCCCCC(=O)OC[C@@H](O)COP(=O)(O)O [LPA 16:0_0:0]
TIMS collisional cross section ([1]; sample type: Human plasma, ion (formula + adduct): [C19H39O7P-H] 1-): 201.2 Å²

Compound: CCCCCC/C=C\CCCCCCCC(=O)OC[C@@H](O)COP(=O)(O)O [LPA 16:1_0:0]
TIMS collisional cross section ([1]; sample type: Human plasma, ion (formula + adduct): [C19H37O7P-H] 1-): 198.2 Å²

Compound: CCCCCCCC/C=C\CCCCCCCC(=O)OC[C@@H](O)COP(=O)(O)O [LPA 18:1_0:0]
TIMS collisional cross section ([1]; sample type: Human plasma, ion (formula + adduct): [C21H41O7P-H] 1-): 205 Å²

Compound: CCCCC/C=C\C/C=C\CCCCCCCC(=O)OC[C@@H](O)COP(=O)(O)O [LPA 18:2_0:0]
TIMS collisional cross section ([1]; sample type: Human plasma, ion (formula + adduct): [C21H39O7P-H] 1-): 207.7 ± 8.1 Å²

Compound: CCCCC/C=C\C/C=C\C/C=C\C/C=C\CCCC(=O)OC[C@@H](O)COP(=O)(O)O [LPA 20:4_0:0]
TIMS collisional cross section ([1]; sample type: Human plasma, ion (formula + adduct): [C23H39O7P-H] 1-): 207.1 Å²

Compound: CC/C=C\C/C=C\C/C=C\C/C=C\C/C=C\CCCC(=O)OCC(O)COP(=O)(O)O (stereo not given) [LPA 20:5]
TIMS collisional cross section ([1]; sample type: Human plasma, ion (formula + adduct): [C23H37O7P-H] 1-): 206.5 Å²

Compound: CC/C=C\C/C=C\C/C=C\C/C=C\C/C=C\C/C=C\CCC(=O)OC[C@@H](O)COP(=O)(O)O [LPA 22:6_0:0]
TIMS collisional cross section ([1]; sample type: Human plasma, ion (formula + adduct): [C25H39O7P-H] 1-): 211 Å² | TIMS collisional cross section ([1]; sample type: Mouse Liver, ion (formula + adduct): [C25H39O7P-H] 1-): 211.6 Å²

Compound: CCCCCCCCCCCCCC(=O)OC[C@@H](O)COP(=O)([O-])OCC[N+](C)(C)C [LPC 14:0_0:0]
TIMS collisional cross section ([1]; sample type: Human plasma, ion (formula + adduct): [C22H46NO7P+HCOO] 1-): 231.1 ± 0.42 Å² | TIMS collisional cross section ([1]; sample type: Human plasma, ion (formula + adduct): [C22H46NO7P-CH3] 1-): 219.7 Å² | TIMS collisional cross section ([1]; sample type: Mouse Liver, ion (formula + adduct): [C22H46NO7P+HCOO] 1-): 231.3 Å²

Compound: CCCCCCCCCCCCCCCCCC(=O)OC[C@@H](O)COP(=O)([O-])OCC[N+](C)(C)C [LPC 18:0_0:0]
TIMS collisional cross section ([1]; sample type: Human plasma, ion (formula + adduct): [C26H54NO7P+HCOO] 1-): 246.01 ± 2.8 Å² | TIMS collisional cross section ([1]; sample type: Human plasma, ion (formula + adduct): [C26H54NO7P-CH3] 1-): 225.5 Å² | TIMS collisional cross section ([1]; sample type: Mouse Liver, ion (formula + adduct): [C26H54NO7P+HCOO] 1-): 244.8 ± 0.42 Å²

Compound: CCCCCCCCCCCCCCCCCCCC(=O)OC[C@@H](O)COP(=O)([O-])OCC[N+](C)(C)C [LPC 20:0_0:0]
TIMS collisional cross section ([1]; sample type: Human plasma, ion (formula + adduct): [C28H58NO7P+HCOO] 1-): 253 Å²

Now from value to compound:

TIMS collisional cross section ([1]; sample type: Human plasma, ion (formula + adduct): [C24H50NO7P+Cl] 1-): 234.8 Å² | TIMS collisional cross section ([1]; sample type: Human plasma, ion (formula + adduct): [C24H50NO7P+HCOO] 1-): 238.02 ± 0.4 Å² | TIMS collisional cross section ([1]; sample type: Human plasma, ion (formula + adduct): [C24H50NO7P-CH3] 1-): 218.1 Å² | TIMS collisional cross section ([1]; sample type: Mouse Liver, ion (formula + adduct): [C24H50NO7P+HCOO] 1-): 241.2 ± 5.1 Å² | TIMS collisional cross section ([1]; sample type: Mouse Liver, ion (formula + adduct): [C24H50NO7P-CH3] 1-): 218.7 Å²
Compound: CCCCCCCCCCCCCCCC(=O)OC[C@@H](O)COP(=O)([O-])OCC[N+](C)(C)C [LPC 16:0_0:0]

TIMS collisional cross section ([1]; sample type: Human plasma, ion (formula + adduct): [C24H48NO7P+HCOO] 1-): 236.14 ± 0.68 Å² | TIMS collisional cross section ([1]; sample type: Human plasma, ion (formula + adduct): [C24H48NO7P-CH3] 1-): 237.8 Å² | TIMS collisional cross section ([1]; sample type: Mouse Liver, ion (formula + adduct): [C24H48NO7P+HCOO] 1-): 235 ± 0.42 Å²
Compound: CCCCCC/C=C/CCCCCCCC(=O)OC[C@@H](O)COP(=O)([O-])OCC[N+](C)(C)C [LPC 16:1_0:0]

TIMS collisional cross section ([1]; sample type: Human plasma, ion (formula + adduct): [C26H48NO7P+HCOO] 1-): 238.3 ± 0.42 Å² | TIMS collisional cross section ([1]; sample type: Human plasma, ion (formula + adduct): [C26H48NO7P-CH3] 1-): 220.2 Å²
Compound: CC/C=C\C/C=C\C/C=C\CCCCCCCC(=O)OC[C@@H](O)COP(=O)([O-])OCC[N+](C)(C)C [LPC 18:3_0:0]

TIMS collisional cross section ([2]; sample type: Liver): 335.7 Å²
Compound: CCCCC/C=C\C/C=C\C/C=C\C/C=C\CCCCCC(=O)OC[C@@H](COC(=O)CCCCCCC/C=C\C/C=C\CCCCC)OC(=O)CCCCCCCCC/C=C\C/C=C\CCCCC [TG 18:2_20:2_22:4] (ion (formula + adduct): [C63H106O6+NH4] 1+)

TIMS collisional cross section ([2]; sample type: Liver): 333 Å²
Compound: CC/C=C\C/C=C\C/C=C\C/C=C\C/C=C\CCCCCC(=O)OC[C@@H](COC(=O)CCCCCCC/C=C\C/C=C\CCCCC)OC(=O)CCC/C=C\C/C=C\C/C=C\C/C=C\CCCCC [TG 18:2_20:4_22:5] (ion (formula + adduct): [C63H100O6+NH4] 1+)

TIMS collisional cross section ([2]; sample type: Liver): 330.4 Å²
Compound: CC/C=C\C/C=C\C/C=C\C/C=C\C/C=C\C/C=C\CCC(=O)OC[C@@H](COC(=O)CCCCCCC/C=C\C/C=C\CCCCC)OC(=O)CCC/C=C\C/C=C\C/C=C\C/C=C\CCCCC [TG 18:2_20:4_22:6] (ion (formula + adduct): [C63H98O6+NH4] 1+)

TIMS collisional cross section ([2]; sample type: Liver): 335.6 Å²
Compound: CC/C=C\C/C=C\C/C=C\C/C=C\C/C=C\C/C=C\CCC(=O)OC[C@@H](COC(=O)CCCCCCC/C=C\C/C=C\CCCCC)OC(=O)CCCCC/C=C\C/C=C\C/C=C\C/C=C\CCCCC [TG 18:2_22:4_22:6] (ion (formula + adduct): [C65H102O6+NH4] 1+)

TIMS collisional cross section ([2]; sample type: Liver): 333.6 Å²
Compound: CC/C=C\C/C=C\C/C=C\C/C=C\C/C=C\C/C=C\CCC(=O)OC[C@@H](COC(=O)CCCCCCC/C=C\C/C=C\CCCCC)OC(=O)CC/C=C\C/C=C\C/C=C\C/C=C\C/C=C\C/C=C\CC [TG 18:2_22:6_22:6] (ion (formula + adduct): [C65H98O6+NH4] 1+)

TIMS collisional cross section ([2]; sample type: HeLa): 333.7 Å²
Compound: CC/C=C\C/C=C\C/C=C\C/C=C\C/C=C\C/C=C\CCC(=O)OC[C@@H](COC(=O)CCC/C=C\C/C=C\C/C=C\C/C=C\CCCCC)OC(=O)CCC/C=C\C/C=C\C/C=C\C/C=C\CCCCC [TG 20:4_20:4_22:6] (ion (formula + adduct): [C65H98O6+NH4] 1+)

TIMS collisional cross section ([2]; sample type: HeLa): 338.1 Å²
Compound: CC/C=C\C/C=C\C/C=C\C/C=C\C/C=C\C/C=C\CCC(=O)OC[C@@H](COC(=O)CCC/C=C\C/C=C\C/C=C\C/C=C\CCCCC)OC(=O)CCCCC/C=C\C/C=C\C/C=C\C/C=C\C/C=C\CC [TG 20:4_22:5_22:6] (ion (formula + adduct): [C67H100O6+NH4] 1+)

TIMS collisional cross section ([2]; sample type: plasma): 219 Å²
Compound: CC(C)CC[C@@H](O)[C@](C)(O)[C@H]1CC[C@@]2(O)C3=CC(=O)[C@@H]4C[C@@H](O)[C@@H](O)C[C@]4(C)[C@H]3CC[C@]12C [ponasterone A] (ion (formula + adduct): [C27H44O6+H] 1+)

TIMS collisional cross section ([2]; sample type: Liver): 219 Å²
Compound: C1C[C@H](O)C(CO)[C@]2([H])CCC3=C([C@]21C)CC[C@]1(C)[C@@]([H])([C@H](C)CC/C=C(/C)\C)CC[C@]13[H] (stereo not given in full) [zymosterol intermediate 1a] (ion (formula + adduct): [C28H46O2+H] 1+)
